“Also recorded” adds a separate entry of the source.
Legend:
[1] = test system: IMGE-5 cells; test: Wound healing / cell migration assay; assay type: cell-based, mice; settings: for Stimulation of IMGE-5 cell migration: wound healing assay, fragments and mutants shown at 1 nM (FIGS. 7B, 8B)
Method in brief: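 Murine gastric IMGE-5 cells at 80% confluence were shifted to 39 °C (non-permissive), serum-starved 24 h, then scratch-wounded. They were treated with or without compound in serum-free DMEM. Wound width was measured at six positions after 24 h and averaged.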

[2] = test system: IMGE-5 cells; test: IMGE-5 cell proliferation, MTT assay; assay type: cell-based, mice; settings: for Mean Response ± SEM (% Control), proliferation of IMGE cells: treatment alone: 10 nM Ggly, 32 mol/mol Bi without Ggly, fetal calf serum positive control
[3] = test system: HT29 human colorectal carcinoma cells; test: Ggly-stimulated inositol phosphate production in HT29 cells; assay type: cell-based
Experimental: Intracellular inositol phosphate production was determined as described previously (Qian et al, 1993). IMGE-5 cells (10^5 cells/ml) were plated in 24-multiwell culture plates in DMEM supplemented with 10% FBS, 200 IU/ml penicillin and 200 μg/ml streptomycin. 24 h later, cells were incubated with DMEM supplemented with antibiotics and Myo-[2-^3H]inositol (2.5 μCi/well) and shifted to 39° C. for 16 h. Cells were then washed with pre-warmed DMEM and incubated (20-30 minutes, 37° C.) with DMEM supplemented with 20 mM LiCl. Loaded cells were then washed in 1 ml of IP buffer (135 mM NaCl, 20 mM N-(2-hydroxyethyl)piperazine-N′-(2-ethanesulfonic acid), 2 mM CaCl2, 1.2 mM MgSO4, 1 mM ethylene glycol-bis(2-aminoethylether)-N,N,N′,N′-tetraacetic acid, 10 mM LiCl, and 0.5% bovine serum albumin, pH 7.45) and incubated with or without agonist in a final volume of 0.5 ml of IP buffer. After 1-h incubation at 37° C., the reaction was stopped by removing the incubation medium and adding 1 ml of a mixture of ethanol/HCl (2000:1; v/v). One ml of each aliquot was applied to a column containing 1.6 ml of a 1:2 (v/v) Dowex AG-1-X8 anion exchange resin in distilled water. The columns were washed with 4 ml of distilled water, followed by 4 ml of 40 mM HCOONH4, and inositol phosphates were eluted with 4 ml of 1 M HCOONH4. The radioactivity of each eluate was counted after addition of Complete phase combining system solution (Amersham, UK). For the positive control, IMGE-5 cells were incubated with a combination of 30 mM NaF and 10 μM AlCl3 under the same experimental conditions.
Ggly-stimulated inositol phosphate production was measured in HT29 human colorectal carcinoma cells.

Row | Compound | Stimulation of IMGE-5 cell migration [1] | Increase in proliferation of IMGE-5 [2] | Mean Response ± SEM (% Control), proliferation of IMGE cells [2] | Inositol phosphate production compared to the control ([3]; HT29 cells, 10 nM Ggly) | Effect on Ggly-induced migration of IMGE-5 cells ([1]; 2, 8 or 32 moles/mole Ggly, 10 nM Ggly, 17 or 24 hours) | Effect of bismuth ions alone on migration ([1]; maximum concentration tested, without Ggly) | Effect on Ggly-induced inositol phosphate production ([3]; 2, 8, and 32 moles Bi3+/mole Ggly, 10 nM Ggly) | Effect of bismuth ions alone on inositol phosphate production ([3]; HT29 cells, highest concentration tested)
1 | Ggly: glycine-extended gastrin17, 18 amino acid non-amidated gastrin, SEQ ID NO:4, residues 55-72 of progastrin (XGPWLEEEEEAYGWMDFG; (1)..(1) pyroglutamate; listed as Homo sapiens) | considerably reduced wound size | 2 fold | 135.7 ± 3.6 % Control | 225% | – | – | – | –
2 | CSCC[C@H](NC(=O)[C@H](Cc1c[nH]c2ccccc12)NC(=O)CNC(=O)[C@H](Cc1ccc(O)cc1)NC(=O)[C@H](C)NC(=O)[C@H](CCC(=O)O)NC(=O)[C@H](CCC(=O)O)NC(=O)[C@H](CCC(=O)O)NC(=O)[C@H](CCC(=O)O)NC(=O)[C@H](CCC(=O)O)NC(=O)[C@H](CC(C)C)NC(=O)[C@H](Cc1c[nH]c2ccccc12)NC(=O)[C@@H]1CCCN1C(=O)CNC(=O)[C@@H]1CCC(=O)N1)C(=O)N[C@@H](CC(=O)O)C(=O)N[C@@H](Cc1ccccc1)C(N)=O [Gamide] | did not stimulate IMGE-5 cell migration; also recorded: inactive | 2 fold | – | – | – | – | – | –
3 | [Bi+3] [bismuth ions] | – | – | 97.9 ± 2.5 % Control | – | completely blocked | no effect | significantly reduced this Ggly-induced stimulation | no effect

Source: US20070031511A1, “Method of treatment” (priority 2003, published 2007)
